The target of assay [1] is T1, Serine/threonine-protein kinase Sgk1 (Homo sapiens) (UniProt O00141).
T1 sequence (whole entry): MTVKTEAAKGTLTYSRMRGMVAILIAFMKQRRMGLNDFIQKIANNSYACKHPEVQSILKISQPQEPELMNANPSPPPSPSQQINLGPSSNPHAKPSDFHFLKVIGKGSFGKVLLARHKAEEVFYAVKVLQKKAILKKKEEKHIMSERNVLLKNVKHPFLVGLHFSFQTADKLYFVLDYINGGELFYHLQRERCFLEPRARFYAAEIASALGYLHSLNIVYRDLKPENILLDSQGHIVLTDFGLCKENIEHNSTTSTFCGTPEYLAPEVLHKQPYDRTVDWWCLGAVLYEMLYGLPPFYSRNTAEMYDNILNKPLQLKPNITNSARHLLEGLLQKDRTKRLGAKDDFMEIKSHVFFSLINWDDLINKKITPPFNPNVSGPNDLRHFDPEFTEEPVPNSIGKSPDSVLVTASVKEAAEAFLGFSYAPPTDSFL
The experiment in a line: Residual activity of SGK1 at 0.1 uM by microplate scintillation counting.

Assay [2] concerns the target T2, Serine/threonine-protein kinase DCLK2 (Homo sapiens) (UniProt Q8N568).
T2 sequence (whole entry): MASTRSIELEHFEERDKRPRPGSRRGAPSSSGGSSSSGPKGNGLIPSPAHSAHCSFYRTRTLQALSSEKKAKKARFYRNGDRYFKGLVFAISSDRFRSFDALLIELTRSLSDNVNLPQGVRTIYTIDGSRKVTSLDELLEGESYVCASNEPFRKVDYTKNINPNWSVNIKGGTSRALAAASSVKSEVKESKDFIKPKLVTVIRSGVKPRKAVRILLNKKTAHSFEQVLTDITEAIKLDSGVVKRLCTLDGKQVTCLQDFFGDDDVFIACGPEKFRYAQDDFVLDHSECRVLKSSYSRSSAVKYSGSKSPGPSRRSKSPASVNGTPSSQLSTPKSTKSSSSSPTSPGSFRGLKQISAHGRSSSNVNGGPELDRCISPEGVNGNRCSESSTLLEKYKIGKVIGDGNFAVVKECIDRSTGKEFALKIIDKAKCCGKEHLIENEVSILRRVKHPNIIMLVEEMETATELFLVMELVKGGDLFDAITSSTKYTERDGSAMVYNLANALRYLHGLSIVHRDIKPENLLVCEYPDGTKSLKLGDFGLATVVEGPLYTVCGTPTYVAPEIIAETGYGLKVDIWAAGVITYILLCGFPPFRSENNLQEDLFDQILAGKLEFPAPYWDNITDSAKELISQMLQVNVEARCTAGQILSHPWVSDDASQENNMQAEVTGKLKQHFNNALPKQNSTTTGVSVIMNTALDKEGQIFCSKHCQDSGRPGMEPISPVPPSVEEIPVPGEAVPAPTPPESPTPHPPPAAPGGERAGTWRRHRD
The experiment in a line: Residual activity of DCAMKL2 at 10 uM by microplate scintillation counting.

Assay [3] has as its target T3, NUAK family SNF1-like kinase 1 (Homo sapiens) (UniProt O60285).
T3 sequence (whole entry): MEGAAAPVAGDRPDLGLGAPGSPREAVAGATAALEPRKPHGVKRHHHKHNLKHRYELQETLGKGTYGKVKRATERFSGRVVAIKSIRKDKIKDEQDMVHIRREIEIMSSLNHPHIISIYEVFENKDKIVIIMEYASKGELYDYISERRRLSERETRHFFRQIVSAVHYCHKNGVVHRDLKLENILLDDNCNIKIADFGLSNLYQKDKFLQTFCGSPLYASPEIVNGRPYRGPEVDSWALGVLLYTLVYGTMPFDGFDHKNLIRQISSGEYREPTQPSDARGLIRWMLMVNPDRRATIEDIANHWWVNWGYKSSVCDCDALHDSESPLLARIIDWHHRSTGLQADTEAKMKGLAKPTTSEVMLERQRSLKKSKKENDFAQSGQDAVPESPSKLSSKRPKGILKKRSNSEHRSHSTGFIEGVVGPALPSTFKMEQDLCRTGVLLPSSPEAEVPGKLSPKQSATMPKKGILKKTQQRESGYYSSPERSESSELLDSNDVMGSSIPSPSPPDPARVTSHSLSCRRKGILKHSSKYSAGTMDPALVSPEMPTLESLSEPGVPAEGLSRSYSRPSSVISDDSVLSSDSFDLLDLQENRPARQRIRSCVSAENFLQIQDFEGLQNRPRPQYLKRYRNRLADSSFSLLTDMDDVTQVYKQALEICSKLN
The experiment in a line: Residual activity of ARK5 at 10 uM by microplate scintillation counting.

Assay [4] has as its target BDNF/NT-3 growth factors receptor (Homo sapiens) (UniProt Q16620). Briefly: Residual activity of TRK-B at 10 uM by microplate scintillation counting.
The target in assay [5] is Mitogen-activated protein kinase 10 (Homo sapiens) (UniProt P53779). Briefly: Residual activity of JNK3 at 10 uM by microplate scintillation counting.
Mitogen-activated protein kinase 10 (Homo sapiens), sequence (P53779 whole entry, canonical isoform): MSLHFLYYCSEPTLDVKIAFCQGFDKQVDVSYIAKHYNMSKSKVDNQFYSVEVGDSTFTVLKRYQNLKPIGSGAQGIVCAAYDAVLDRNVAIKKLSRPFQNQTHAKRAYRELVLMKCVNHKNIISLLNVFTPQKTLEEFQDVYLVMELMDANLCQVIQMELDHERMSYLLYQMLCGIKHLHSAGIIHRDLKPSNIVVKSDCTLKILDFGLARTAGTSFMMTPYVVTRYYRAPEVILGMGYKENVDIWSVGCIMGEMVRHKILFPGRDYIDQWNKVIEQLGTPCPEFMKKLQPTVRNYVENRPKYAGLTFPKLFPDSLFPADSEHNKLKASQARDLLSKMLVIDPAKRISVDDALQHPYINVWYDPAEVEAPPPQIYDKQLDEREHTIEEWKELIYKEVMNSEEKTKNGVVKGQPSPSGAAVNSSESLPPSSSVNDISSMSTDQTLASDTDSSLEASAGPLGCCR
The target in assay [6] is Casein kinase I isoform epsilon (Homo sapiens) (UniProt P49674). Briefly: Residual activity of CK1epsilon at 10 uM by microplate scintillation counting.
Casein kinase I isoform epsilon (Homo sapiens), sequence (P49674 whole entry, looked up, canonical isoform): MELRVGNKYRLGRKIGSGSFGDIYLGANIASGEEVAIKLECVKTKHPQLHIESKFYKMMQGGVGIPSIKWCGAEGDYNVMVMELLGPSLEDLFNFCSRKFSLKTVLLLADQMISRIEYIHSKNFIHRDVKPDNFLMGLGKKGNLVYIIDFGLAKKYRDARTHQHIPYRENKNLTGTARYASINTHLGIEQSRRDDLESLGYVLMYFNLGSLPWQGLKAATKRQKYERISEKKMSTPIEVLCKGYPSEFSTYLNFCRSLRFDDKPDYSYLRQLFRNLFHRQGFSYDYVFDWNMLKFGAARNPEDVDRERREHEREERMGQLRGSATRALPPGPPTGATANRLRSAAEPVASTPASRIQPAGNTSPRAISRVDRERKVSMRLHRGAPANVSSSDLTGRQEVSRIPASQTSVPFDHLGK
The target of assay [7] is Serine/threonine-protein kinase PAK 4 (Homo sapiens) (UniProt O96013). Briefly: Residual activity of PAK4 at 10 uM by microplate scintillation counting.
Serine/threonine-protein kinase PAK 4 (Homo sapiens), sequence (O96013 whole entry, looked up): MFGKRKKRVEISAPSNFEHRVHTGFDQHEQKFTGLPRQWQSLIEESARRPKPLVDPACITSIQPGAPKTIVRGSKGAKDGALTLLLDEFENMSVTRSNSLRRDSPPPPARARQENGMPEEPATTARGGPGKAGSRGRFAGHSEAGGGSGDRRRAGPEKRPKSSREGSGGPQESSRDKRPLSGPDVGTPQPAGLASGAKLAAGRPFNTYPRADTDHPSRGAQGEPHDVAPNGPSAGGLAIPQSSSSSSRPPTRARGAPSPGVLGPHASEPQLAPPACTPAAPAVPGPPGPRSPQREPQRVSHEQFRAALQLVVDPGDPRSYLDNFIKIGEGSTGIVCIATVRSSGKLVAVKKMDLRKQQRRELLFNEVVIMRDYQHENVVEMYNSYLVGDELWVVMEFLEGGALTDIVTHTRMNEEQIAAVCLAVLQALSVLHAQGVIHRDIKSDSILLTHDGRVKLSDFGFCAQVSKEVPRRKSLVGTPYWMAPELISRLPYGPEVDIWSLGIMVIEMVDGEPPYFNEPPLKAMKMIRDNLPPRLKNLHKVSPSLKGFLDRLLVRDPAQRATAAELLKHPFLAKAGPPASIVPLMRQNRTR
Assay [8] deals with Mitogen-activated protein kinase kinase kinase kinase 4 (Homo sapiens) (UniProt O95819). The experiment in a line: Residual activity of MAP4K4 at 10 uM by microplate scintillation counting.
Mitogen-activated protein kinase kinase kinase kinase 4 (Homo sapiens), sequence (O95819 2-1239 limits assumed): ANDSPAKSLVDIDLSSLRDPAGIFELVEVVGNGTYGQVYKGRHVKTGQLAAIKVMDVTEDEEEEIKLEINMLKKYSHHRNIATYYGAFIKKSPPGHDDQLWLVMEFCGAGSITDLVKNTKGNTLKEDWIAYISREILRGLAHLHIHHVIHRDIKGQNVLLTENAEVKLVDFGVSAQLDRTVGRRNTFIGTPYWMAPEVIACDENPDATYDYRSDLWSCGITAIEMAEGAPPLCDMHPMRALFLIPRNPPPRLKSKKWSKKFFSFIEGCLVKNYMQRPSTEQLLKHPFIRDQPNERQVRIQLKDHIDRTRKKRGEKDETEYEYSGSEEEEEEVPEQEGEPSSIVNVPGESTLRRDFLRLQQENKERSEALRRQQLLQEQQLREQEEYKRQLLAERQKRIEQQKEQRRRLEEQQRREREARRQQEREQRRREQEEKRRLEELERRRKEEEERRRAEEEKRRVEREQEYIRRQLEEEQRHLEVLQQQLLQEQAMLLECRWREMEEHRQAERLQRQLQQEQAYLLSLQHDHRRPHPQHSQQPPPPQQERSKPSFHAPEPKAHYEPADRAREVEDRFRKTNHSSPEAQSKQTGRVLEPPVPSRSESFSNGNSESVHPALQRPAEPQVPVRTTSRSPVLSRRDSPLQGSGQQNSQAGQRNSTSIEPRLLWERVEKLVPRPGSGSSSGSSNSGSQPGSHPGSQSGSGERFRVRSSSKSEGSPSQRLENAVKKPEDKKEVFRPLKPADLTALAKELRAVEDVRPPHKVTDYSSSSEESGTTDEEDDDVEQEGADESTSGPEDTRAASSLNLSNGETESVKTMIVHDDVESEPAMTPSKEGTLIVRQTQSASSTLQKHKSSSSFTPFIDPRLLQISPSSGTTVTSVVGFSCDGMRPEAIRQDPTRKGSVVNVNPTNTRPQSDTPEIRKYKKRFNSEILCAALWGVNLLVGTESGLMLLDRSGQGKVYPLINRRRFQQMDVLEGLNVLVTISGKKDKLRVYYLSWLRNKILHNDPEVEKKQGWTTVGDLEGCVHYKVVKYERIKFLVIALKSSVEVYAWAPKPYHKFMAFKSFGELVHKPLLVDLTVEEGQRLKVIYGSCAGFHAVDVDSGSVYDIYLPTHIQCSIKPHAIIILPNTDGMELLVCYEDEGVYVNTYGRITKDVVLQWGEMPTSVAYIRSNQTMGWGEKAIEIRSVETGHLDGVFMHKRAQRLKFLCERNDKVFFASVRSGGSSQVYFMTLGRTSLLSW
In assay [9] the target is T4, Activin receptor type-1 (Homo sapiens) (UniProt Q04771).
T4 sequence (whole entry): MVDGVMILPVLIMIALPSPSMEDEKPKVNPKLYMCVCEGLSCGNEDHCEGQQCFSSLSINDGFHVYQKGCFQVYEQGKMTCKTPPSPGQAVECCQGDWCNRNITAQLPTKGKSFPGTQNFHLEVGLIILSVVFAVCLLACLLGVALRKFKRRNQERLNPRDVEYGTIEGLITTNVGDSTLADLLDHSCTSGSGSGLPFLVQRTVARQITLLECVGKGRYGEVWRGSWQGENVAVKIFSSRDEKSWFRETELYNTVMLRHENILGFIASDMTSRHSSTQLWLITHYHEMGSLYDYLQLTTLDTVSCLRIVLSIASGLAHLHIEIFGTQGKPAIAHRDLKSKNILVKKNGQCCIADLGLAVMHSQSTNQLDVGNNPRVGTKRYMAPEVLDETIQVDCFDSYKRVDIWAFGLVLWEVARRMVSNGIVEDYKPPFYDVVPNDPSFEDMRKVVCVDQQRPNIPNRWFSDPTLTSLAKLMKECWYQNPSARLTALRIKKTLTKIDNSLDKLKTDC
Briefly: Residual activity of ACV-R1 at 0.1 uM by microplate scintillation counting.

The target in assay [10] is Serine/threonine-protein kinase Chk2 (Homo sapiens) (UniProt O96017). Briefly: Residual activity of CHK2 at 10 uM by microplate scintillation counting.
Serine/threonine-protein kinase Chk2 (Homo sapiens), sequence (O96017 whole entry): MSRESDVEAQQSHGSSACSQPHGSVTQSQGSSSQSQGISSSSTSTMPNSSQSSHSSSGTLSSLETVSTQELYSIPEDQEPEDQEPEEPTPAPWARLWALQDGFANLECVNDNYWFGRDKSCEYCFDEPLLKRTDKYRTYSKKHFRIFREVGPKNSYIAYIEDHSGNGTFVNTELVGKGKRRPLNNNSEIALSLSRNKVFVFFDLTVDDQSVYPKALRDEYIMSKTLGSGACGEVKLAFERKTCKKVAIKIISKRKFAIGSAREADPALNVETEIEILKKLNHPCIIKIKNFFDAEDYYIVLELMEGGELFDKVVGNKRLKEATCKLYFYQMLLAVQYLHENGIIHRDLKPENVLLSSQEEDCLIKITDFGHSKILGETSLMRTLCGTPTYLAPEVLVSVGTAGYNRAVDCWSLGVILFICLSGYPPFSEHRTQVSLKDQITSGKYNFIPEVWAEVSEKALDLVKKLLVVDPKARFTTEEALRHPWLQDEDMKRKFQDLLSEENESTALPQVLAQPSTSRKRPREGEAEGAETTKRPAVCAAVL
Assay [11] addresses Dual specificity tyrosine-phosphorylation-regulated kinase 1B (Homo sapiens) (UniProt Q9Y463). Briefly: Residual activity of DYRK1B at 10 uM by microplate scintillation counting.

Dual specificity tyrosine-phosphorylation-regulated kinase 1B (Homo sapiens), sequence (Q9Y463 whole entry, looked up): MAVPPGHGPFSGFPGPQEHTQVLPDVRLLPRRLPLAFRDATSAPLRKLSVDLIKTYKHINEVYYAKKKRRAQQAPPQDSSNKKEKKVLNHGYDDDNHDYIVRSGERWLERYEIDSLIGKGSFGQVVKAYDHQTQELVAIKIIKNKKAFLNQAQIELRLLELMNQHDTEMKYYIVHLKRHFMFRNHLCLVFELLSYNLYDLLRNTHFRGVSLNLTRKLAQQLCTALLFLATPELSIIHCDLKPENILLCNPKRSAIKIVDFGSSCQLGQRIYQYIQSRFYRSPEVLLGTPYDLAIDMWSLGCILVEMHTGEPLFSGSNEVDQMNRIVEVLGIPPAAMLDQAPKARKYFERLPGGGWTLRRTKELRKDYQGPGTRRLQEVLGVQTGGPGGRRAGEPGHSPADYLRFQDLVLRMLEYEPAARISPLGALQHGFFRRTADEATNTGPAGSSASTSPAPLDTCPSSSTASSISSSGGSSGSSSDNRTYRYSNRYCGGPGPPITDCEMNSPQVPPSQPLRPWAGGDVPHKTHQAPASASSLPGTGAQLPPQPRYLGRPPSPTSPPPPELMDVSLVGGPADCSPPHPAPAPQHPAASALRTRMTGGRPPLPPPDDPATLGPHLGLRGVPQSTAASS
BDNF/NT-3 growth factors receptor (Homo sapiens), sequence (Q16620 32-822 limits assumed): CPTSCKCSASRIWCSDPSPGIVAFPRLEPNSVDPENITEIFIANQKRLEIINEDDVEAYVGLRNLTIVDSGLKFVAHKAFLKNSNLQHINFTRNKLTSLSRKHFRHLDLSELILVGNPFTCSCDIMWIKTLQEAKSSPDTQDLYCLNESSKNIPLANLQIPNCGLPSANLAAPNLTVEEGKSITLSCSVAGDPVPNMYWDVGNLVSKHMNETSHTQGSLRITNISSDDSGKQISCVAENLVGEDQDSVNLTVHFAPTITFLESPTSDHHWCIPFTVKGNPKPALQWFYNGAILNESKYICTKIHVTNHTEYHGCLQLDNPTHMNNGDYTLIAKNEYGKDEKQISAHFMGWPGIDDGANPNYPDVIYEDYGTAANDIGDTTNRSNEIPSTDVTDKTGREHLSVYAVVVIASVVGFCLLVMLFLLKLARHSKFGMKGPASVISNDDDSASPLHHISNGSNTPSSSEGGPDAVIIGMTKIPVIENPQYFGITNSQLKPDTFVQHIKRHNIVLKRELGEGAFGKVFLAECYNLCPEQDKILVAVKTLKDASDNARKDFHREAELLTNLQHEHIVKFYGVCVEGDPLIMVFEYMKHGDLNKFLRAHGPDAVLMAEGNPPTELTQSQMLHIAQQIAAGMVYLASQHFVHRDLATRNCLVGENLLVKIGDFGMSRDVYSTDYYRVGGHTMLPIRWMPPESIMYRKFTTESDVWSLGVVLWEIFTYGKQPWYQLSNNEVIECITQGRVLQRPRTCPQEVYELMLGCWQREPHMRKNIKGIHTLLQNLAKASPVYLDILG

With `COc1cc2c(Oc3ccc(-c4nc5ccccc5s4)cc3F)ncnc2cc1OCCCN1CCN(C)CC1`, the residual activity in assay [1] came out at 98%; in [2], 115%; in assay [3] it was 139%; in assay [4], 69%; in assay [5] it was 45%; in assay [6] it was 97%. The residual activity in assay [7] was found to be 50%; in assay [8], 96%; in assay [9], 97%; in [10] it was 9%; in assay [11], 194%.
`COc1cc2c(Oc3ccc(-c4nc5ccccc5s4)cc3)ncnc2cc1OCCCN1CCN(C)CC1`: the residual activity was found to be 85% in assay [1]; 93% in assay [2]; 127% in [3]; 114% in assay [4]; 52% in assay [5]; 156% in [6]. The residual activity was determined as 55% in assay [7]; 101% in [8]; 89% in [9]; 11% in assay [10]; 224% in assay [11].
As for `COc1cc2c(Oc3ccc(-c4nc5ccccc5s4)cc3)ncnc2cc1OCCCN1CCCC1`, the residual activity in assay [1] turned out to be 96%; in [2], 97%; in assay [3] it was 109%; in [4] it was 82%; in assay [5], 84%; in [6], 147%. Also, the residual activity turned out to be 91% in [7]; 76% in assay [8]; 91% in assay [9]; 17% in [10]; 136% in assay [11].
